Measurements as given in patent US9670227B2, “Thienopyrimidine derivatives, a process for their preparation and pharmaceutical compositions containing them” (LES LABORATOIRES SERVIER, priority 2013, dated 2017).
Where two headings read alike, the source gives them in different places.

Columns and labels:
Mcl-1 protein = Mcl-1 protein (UniProtKB primary accession number: Q07820) (Homo sapiens, UniProt Q07820); assay: Inhibition of Mcl-1 by fluorescence polarisation, Method 1; type: binding; details: read-out: IC50 (M) Mcl-1 FP
Sequence of Mcl-1 protein (Q07820 whole entry): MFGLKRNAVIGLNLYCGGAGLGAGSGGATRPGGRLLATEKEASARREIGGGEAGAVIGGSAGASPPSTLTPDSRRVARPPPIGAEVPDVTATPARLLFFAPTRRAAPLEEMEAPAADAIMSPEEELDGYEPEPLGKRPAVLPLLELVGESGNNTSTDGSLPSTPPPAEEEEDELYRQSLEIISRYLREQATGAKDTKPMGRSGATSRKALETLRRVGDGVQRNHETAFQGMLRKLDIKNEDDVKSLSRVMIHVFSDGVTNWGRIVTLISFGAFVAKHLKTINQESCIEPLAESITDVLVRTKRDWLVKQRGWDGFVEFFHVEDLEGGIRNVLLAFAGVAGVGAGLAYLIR
How it was run: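 FP readout of relative binding potency. Mcl-1 5 nM final, fluorescein-labelled ligand 1 nM final; buffer 10 mM HEPES, 150 mM NaCl, 0.05% Tween 20, pH 7.4; 11-pt dilution series, 5% DMSO final.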

[1] = tested on: H929 multiple myeloma tumour line; assay: In vitro cytotoxicity, Microculture Tetrazolium Assay; type: cell-based; details: Homo sapiens, NCI-H929, 48 h, H929 cells, 48 hours exposure, MTT; read-out: IC50 (μM) MTT H929
Protocol: The cytotoxicity studies were carried out on the H929 multiple myeloma tumour line.
The cells are distributed onto microplates and exposed to the test compounds for 48 hours.

[2] = fluorescence polarisation test, Method 2 values are underlined in the patent (underlining not visible here)
[3] = fluorescence polarisation, Method 1, or Method 2

IC50 (Mcl-1 protein; [2]) [M]	IC50 (Mcl-1 protein; [3]) [M]	Structure (SMILES)	IC50 [1] [µM]
9.1e-09		Cc1c(-c2c(-c3ccc(F)cc3)sc3ncnc(OC(Cc4ccccc4OCc4ccncn4)C(=O)O)c23)ccc(OCCN2CCN(C)CC2)c1Cl [Example 68, (2R)-2-{[(5Sa)-5-{3-chloro-2-methyl-4-[2-(4-methylpiperazin-1-yl)ethoxy]phenyl}-6-(4-fluorophenyl)thieno[2,3-d]pyrimidin-4-yl]oxy}-3-[2-(pyrimidin-4-ylmethoxy)phenyl]propanoic acid]	0.035
9.1e-09		Cc1c(-c2c(-c3ccco3)sc3ncnc(OC(Cc4ccccc4OCc4ccn(C)n4)C(=O)O)c23)ccc(OCCN2CCN(C)CC2)c1Cl [Example 246, (2R)-2-{[(5Sa)-5-{3-chloro-2-methyl-4-[2-(4-methylpiperazin-1-yl)ethoxy]phenyl}-6-(furan-2-yl)thieno[2,3-d]pyrimidin-4-yl]oxy}-3-{2-[(1-methyl-1H-pyrazol-3-yl)methoxy]phenyl}propanoic acid]	0.324
	1.1e-08	COc1ccccc1CC(Oc1ncnc2sc(-c3cccc(O)c3)c(-c3ccc(OCCN4CCN(C)CC4)c(Cl)c3C)c12)C(=O)O [Example 553, (2R)-2-{[(5Sa)-5-{3-chloro-2-methyl-4-[2-(4-methylpiperazin-1-yl)ethoxy]phenyl}-6-(3-hydroxyphenyl)thieno[2,3-d]pyrimidin-4-yl]oxy}-3-(2-methoxyphenyl)propanoic acid]	0.585
1.1e-08		Cc1c(-c2c(-c3ccco3)sc3ncnc(OC(Cc4ccccc4OCc4ccc5ccccc5n4)C(=O)O)c23)ccc(OCCN2CCN(C)CC2)c1Cl [Example 234, (2R)-2-{[(5Sa)-5-{3-chloro-2-methyl-4-[2-(4-methylpiperazin-1-yl)ethoxy]phenyl}-6-(furan-2-yl)thieno[2,3-d]pyrimidin-4-yl]oxy}-3-[2-(quinolin-2-ylmethoxy)phenyl]propanoic acid]	0.135
1.5e-08		Cc1c(-c2c(-c3ccco3)sc3ncnc(OC(Cc4ccccc4OCc4cccc(N5CCCC5)n4)C(=O)O)c23)ccc(OCCN2CCN(C)CC2)c1Cl [Example 237, (2R)-2-{[(5Sa)-5-{3-chloro-2-methyl-4-[2-(4-methylpiperazin-1-yl)ethoxy]phenyl}-6-(furan-2-yl)thieno[2,3-d]pyrimidin-4-yl]oxy}-3-(2-{[6-(pyrrolidin-1-yl)pyridin-2-yl]methoxy}phenyl)propanoic acid]	0.186
	1.7e-08	Cc1c(-c2c(-c3cccc(F)c3F)sc3ncnc(OC(Cc4ccccc4OCc4ccnc(C(F)(F)F)n4)C(=O)O)c23)ccc(OCCN2CCN(C)CC2)c1Cl [Example 705, (2R)-2-{[(5Sa)-5-{3-chloro-2-methyl-4-[2-(4-methylpiperazin-1-yl)ethoxy]phenyl}-6-(2,3-difluorophenyl)thieno[2,3-d]pyrimidin-4-yl]oxy}-3-(2-{[2-(trifluoromethyl)pyrimidin-4-yl]methoxy}phenyl)propanoic acid]	0.02
7.5e-09		COc1nccc(COc2ccccc2CC(Oc2ncnc3sc(-c4ccco4)c(-c4ccc(OCCN5CCN(C)CC5)c(Cl)c4C)c23)C(=O)O)n1 [Example 255, (2R)-2-{[(5Sa)-5-{3-chloro-2-methyl-4-[2-(4-methylpiperazin-1-yl)ethoxy]phenyl}-6-(furan-2-yl)thieno[2,3-d]pyrimidin-4-yl]oxy}-3-{2-[(2-methoxypyrimidin-4-yl)methoxy]phenyl}propanoic acid]	0.018

More lines, now with the values behind:

Structure (SMILES)	IC50 (Mcl-1 protein; [2]) [M]	IC50 (Mcl-1 protein; [3]) [M]	IC50 [1] [µM]
Cc1c(-c2c(-c3ccc(F)cc3)sc3ncnc(OC(Cc4ccccc4OCc4ccnc(OCC(F)(F)F)n4)C(=O)O)c23)ccc(OCCN(C)C)c1Cl [Example 131, (2R)-2-{[(5Sa)-5-{3-chloro-4-[2-(dimethylamino)ethoxy]-2-methylphenyl}-6-(4-fluorophenyl)thieno[2,3-d]pyrimidin-4-yl]oxy}-3-(2-{[2-(2,2,2-trifluoroethoxy)pyrimidin-4-yl]methoxy}phenyl)propanoic acid]	7.9e-09		0.039
COc1ccccc1-c1nccc(COc2ccccc2CC(Oc2ncnc3sc(-c4ccc(OCc5cccnc5)cc4)c(-c4ccc(OCCN5CCN(C)CC5)c(Cl)c4C)c23)C(=O)O)n1 [Example 772, (2R)-2-[((5Sa)-5-{3-chloro-2-methyl-4-[2-(4-methylpiperazin-1-yl)ethoxy]phenyl}-6-[4-(pyridin-3-ylmethoxy)phenyl]thieno[2,3-d]pyrimidin-4-yl)oxy]-3-(2-{[2-(2-methoxyphenyl)pyrimidin-4-yl]methoxy}phenyl)propanoic acid]		9.48e-10	0.01
Cc1c(-c2c(-c3ccc(F)cc3)sc3ncnc(OC(Cc4ccccc4OCc4cnccn4)C(=O)O)c23)ccc(OCCCN(C)C)c1Cl [Example 147, (2R)-2-{[(5Sa)-5-{3-chloro-4-[3-(dimethylamino)propoxy]-2-methylphenyl}-6-(4-fluorophenyl)thieno[2,3-d]pyrimidin-4-yl]oxy}-3-[2-(pyrazin-2-ylmethoxy)phenyl]propanoic acid]	2.4e-08		0.787
Cc1c(-c2c(-c3cccc(F)c3F)sc3ncnc(OC(Cc4ccccc4OCc4ccnn4C(C)(C)C)C(=O)O)c23)ccc(OCCN(C)C)c1Cl [Example 755, (2R)-3-{2-[(1-tert-butyl-1H-pyrazol-5-yl)methoxy]phenyl}-2-{[(5Sa)-5-{3-chloro-4-[2-(dimethylamino)ethoxy]-2-methylphenyl}-6-(2,3-difluorophenyl)thieno[2,3-d]pyrimidin-4-yl]oxy}propanoic acid]		4.65e-09	0.032
CC#Cc1sc2ncnc(OC(Cc3ccccc3OC)C(=O)O)c2c1-c1cc(F)c(OCCN2CCN(C)CC2)c(Cl)c1C [Example 476, (2R)-2-{[(5Sa)-5-{3-chloro-5-fluoro-2-methyl-4-[2-(4-methylpiperazin-1-yl)ethoxy]phenyl}-6-(prop-1-yn-1-yl)thieno[2,3-d]pyrimidin-4-yl]oxy}-3-(2-methoxyphenyl)propanoic acid]		2e-08	1.03
COc1ccccc1CC(Oc1ncnc2sc(-c3ccco3)c(-c3ccc(OCC4CN(C)CCO4)c(Cl)c3C)c12)C(=O)O [Example 314, (2R)-2-{[(5Sa)-5-{3-chloro-2-methyl-4-[(4-methylmorpholin-2-yl)methoxy]phenyl}-6-(furan-2-yl)thieno[2,3-d]pyrimidin-4-yl]oxy}-3-(2-methoxyphenyl)propanoic acid]	6.9e-09		1.82
CCCCn1nccc1COc1ccccc1CC(Oc1ncnc2sc(-c3ccc(OCCN4CCOCC4)cc3)c(-c3ccc(OCCN4CCN(C)CC4)c(Cl)c3C)c12)C(=O)O [Example 616, (2R)-3-{2-[(1-butyl-1H-pyrazol-5-yl)methoxy]phenyl}-2-[((5Sa)-5-{3-chloro-2-methyl-4-[2-(4-methylpiperazin-1-yl)ethoxy]phenyl}-6-{4-[2-(morpholin-4-yl)ethoxy]phenyl}thieno[2,3-d]pyrimidin-4-yl)oxy]propanoic acid]		4e-09	0.07
COc1ccccc1CC(Oc1ncnc2sc(-c3ccccc3)c(-c3ccc(OCCN4CCN(C)CC4)c(Cl)c3C)c12)C(=O)O [Example 564, (2R)-2-[((5Sa)-5-{3-chloro-2-methyl-4-[2-(4-methylpiperazin-1-yl)ethoxy]phenyl}-6-phenylthieno[2,3-d]pyrimidin-4-yl)oxy]-3-(2-methoxyphenyl)propanoic acid]		8.5e-10	0.202
Cc1c(-c2c(-c3ccc(F)o3)sc3ncnc(OC(Cc4ccccc4OCC(=O)NC4CCCC4)C(=O)O)c23)ccc(OCCN2CCN(C)CC2)c1Cl [Example 152, (2R)-2-{[(5Sa)-5-{3-chloro-2-methyl-4-[2-(4-methylpiperazin-1-yl)ethoxy]phenyl}-6-(5-fluorofuran-2-yl)thieno[2,3-d]pyrimidin-4-yl]oxy}-3-{2-[2-(cyclopentylamino)-2-oxoethoxy]phenyl}propanoic acid]	9.9e-09		0.19
Cc1ccccc1CC(Oc1ncnc2sc(-c3ccco3)c(-c3ccc(OCCN4CCN(C)CC4)c(Cl)c3C)c12)C(=O)O [Example 354, (2R)-2-{[(5Sa)-5-{3-chloro-2-methyl-4-[2-(4-methylpiperazin-1-yl)ethoxy]phenyl}-6-(furan-2-yl)thieno[2,3-d]pyrimidin-4-yl]oxy}-3-(2-methylphenyl)propanoic acid]	1.1e-08		0.544
Cc1cnccc1-c1nccc(COc2ccccc2CC(Oc2ncnc3sc(-c4ccc(F)cc4)c(-c4ccc(OCCN(C)C)c(Cl)c4C)c23)C(=O)O)n1 [Example 137, (2R)-2-{[(5Sa)-5-{3-chloro-4-[2-(dimethylamino)ethoxy]-2-methylphenyl}-6-(4-fluorophenyl)thieno[2,3-d]pyrimidin-4-yl]oxy}-3-(2-{[2-(3-methylpyridin-4-yl)pyrimidin-4-yl]methoxy}phenyl)propanoic acid]	5.5e-09		0.007
Cc1c(-c2c(-c3ccco3)sc3ncnc(OC(Cc4ccccc4OCc4ccnn4-c4ccccc4)C(=O)O)c23)ccc(OCCN2CCN(C)CC2)c1Cl [Example 263, (2R)-2-{[(5Sa)-5-{3-chloro-2-methyl-4-[2-(4-methylpiperazin-1-yl)ethoxy]phenyl}-6-(furan-2-yl)thieno[2,3-d]pyrimidin-4-yl]oxy}-3-{2-[(1-phenyl-1H-pyrazol-5-yl)methoxy]phenyl}propanoic acid]	2e-09		0.126
COc1ccccc1CC(Oc1ncnc2sc(-c3csc(Cl)c3)c(-c3ccc(OCCN4CCN(C)CC4)c(Cl)c3C)c12)C(=O)O [Example 570, (2R)-2-{[(5Sa)-5-{3-chloro-2-methyl-4-[2-(4-methylpiperazin-1-yl)ethoxy]phenyl}-6-(5-chlorothiophen-3-yl)thieno[2,3-d]pyrimidin-4-yl]oxy}-3-(2-methoxyphenyl)propanoic acid]		2e-08	0.324
